Laboratory results reported in PubChem BioAssay AID248 (DTP/NCI, 2004).
Toxic doses and inconclusive results are not listed. Rule as the data show it: active = T/C of 150% or more; inactive = T/C below 125%.

Tested on: L1210 leukemia ip in BDF1 mice, survival T/C
Experiment: NCI In Vivo Anticancer Drug Screen. Data for tumor model L1210 Leukemia (intraperitoneal) in B6D2F1 (BDF1) mice
Conditions: endpoint: mean survival time, higher = longer survival
Outline: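 Transplanted-tumor mice were given test agent; controls received vehicle only. Survival readings from the two groups were divided (treated over control).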

[1] = dose: 6.25 mg/kg/injection, schedule: Q01DX009 (ip), vehicle: saline
[2] = dose: 12.5 mg/kg/injection, schedule: Q01DX009 (ip), vehicle: saline
[3] = dose: 25.0 mg/kg/injection, schedule: Q01DX009 (ip), vehicle: saline
[4] = dose: 100.0 mg/kg/injection, schedule: Q01DX001 (ip), vehicle: saline
[5] = dose: 200.0 mg/kg/injection, schedule: Q01DX001 (ip), vehicle: saline
[6] = dose: 400.0 mg/kg/injection, schedule: Q01DX001 (ip), vehicle: saline
[7] = dose: 100.0 mg/kg/injection, schedule: Q04DX003 (ip), vehicle: saline with Tween-80
[8] = dose: 100.0 mg/kg/injection, schedule: Q01DX009 (ip), vehicle: saline with Tween-80
[9] = dose: 200.0 mg/kg/injection, schedule: Q01DX009 (ip), vehicle: saline with Tween-80
[10] = dose: 400.0 mg/kg/injection, schedule: Q01DX009 (ip), vehicle: saline with Tween-80
[11] = dose: 100.0 mg/kg/injection, schedule: Q04DX003 (ip), vehicle: saline
[12] = dose: 200.0 mg/kg/injection, schedule: Q04DX003 (ip), vehicle: saline
[13] = dose: 75.0 mg/kg/injection, schedule: Q01DX001 (ip), vehicle: saline
[14] = dose: 150.0 mg/kg/injection, schedule: Q01DX001 (ip), vehicle: saline
[15] = dose: 200.0 mg/kg/injection, schedule: Q04DX003 (ip), vehicle: saline with Tween-80
[16] = dose: 400.0 mg/kg/injection, schedule: Q04DX003 (ip), vehicle: saline with Tween-80
[17] = dose: 50.0 mg/kg/injection, schedule: Q01DX009 (ip), vehicle: saline
[18] = dose: 50.0 mg/kg/injection, schedule: Q04DX003 (ip), vehicle: saline
[19] = dose: 100.0 mg/kg/injection, schedule: Q01DX009 (ip), vehicle: saline

Measured: T/C

CC(=O)OC(CC(=O)CC(O)(C(F)(F)F)C(F)(F)F)(C(F)(F)F)C(F)(F)F
inactive: [1] 94 % of control | [2] 91 % of control | [3] 88 % of control

CC(=O)NC1CCc2ccccc21 (configuration not stated)
inactive: dose: 50.0 mg/kg/injection, schedule: Q04DX002 (ip), vehicle: Klucel (hydroxypropylcellulose) (HPC) 102 % of control | dose: 100.0 mg/kg/injection, schedule: Q04DX002 (ip), vehicle: Klucel (hydroxypropylcellulose) (HPC) 105 % of control | dose: 200.0 mg/kg/injection, schedule: Q04DX002 (ip), vehicle: Klucel (hydroxypropylcellulose) (HPC) 118 % of control

CC(C)(Oc1ccc(Cl)cc1)C(=O)O
inactive: [4] 101 % of control | [5] 101 % of control | [6] 98 % of control

NNc1nnnc2ccccc12
inactive: dose: 20.0 mg/kg/injection, schedule: Q01DX001 (ip), vehicle: Klucel (hydroxypropylcellulose) (HPC) 108 % of control

Clc1nc(Cl)n2c(Cl)cncc12
inactive: dose: 25.0 mg/kg/injection, schedule: Q04DX003 (ip), vehicle: saline with Tween-80 96 % of control | dose: 50.0 mg/kg/injection, schedule: Q04DX003 (ip), vehicle: saline with Tween-80 103 % of control | [7] 96 % of control

Cc1ccc(C(=O)/C=C/c2ccc3c(c2)OCO3)c(C)c1
inactive: dose: 100.0 mg/kg/injection, schedule: Q04DX002 (ip), vehicle: DMSO 103 % of control | dose: 200.0 mg/kg/injection, schedule: Q04DX002 (ip), vehicle: DMSO 93 % of control | dose: 400.0 mg/kg/injection, schedule: Q04DX002 (ip), vehicle: DMSO 103 % of control

Cc1cc2c3ccccc3nc(C(F)(F)F)n2n1
inactive: [8] 97 % of control | [9] 103 % of control | [10] 95 % of control

CCCOC(=O)CCOC
inactive: [4] 94 % of control | [5] 103 % of control | [6] 103 % of control

COc1ccc(C(=O)c2ccc(OC)c(OC)c2C(=O)O)cc1
inactive: [11] 106 % of control | [12] 114 % of control | dose: 400.0 mg/kg/injection, schedule: Q04DX003 (ip), vehicle: saline 103 % of control

CC(=O)OC1=CCC(C(C)(C)C)CC1 (configuration not stated)
inactive: dose: 12.5 mg/kg/injection, schedule: Q01DX009 (ip), vehicle: Klucel (hydroxypropylcellulose) (HPC) 107 % of control | dose: 12.5 mg/kg/injection, schedule: Q04DX003 (ip), vehicle: Klucel (hydroxypropylcellulose) (HPC) 96 % of control | dose: 25.0 mg/kg/injection, schedule: Q01DX009 (ip), vehicle: Klucel (hydroxypropylcellulose) (HPC) 93 % of control | dose: 25.0 mg/kg/injection, schedule: Q04DX003 (ip), vehicle: Klucel (hydroxypropylcellulose) (HPC) 102 % of control | dose: 50.0 mg/kg/injection, schedule: Q04DX003 (ip), vehicle: Klucel (hydroxypropylcellulose) (HPC) 106 % of control

CCOC(=O)c1nc(N)[nH]c(=O)c1CCCCc1ccccc1
inactive: dose: 150.0 mg/kg/injection, schedule: Q01DX001 (ip), vehicle: saline with Tween-80 87 % of control | dose: 300.0 mg/kg/injection, schedule: Q01DX001 (ip), vehicle: saline with Tween-80 89 % of control

CC(C)OP(=O)(NO)OC(C)C
inactive: [4] 97 % of control | [5] 92 % of control | [6] 90 % of control

O=C1CC(C(=O)O)C(C(=O)O)O1 (configuration not stated)
inactive: dose: 50.0 mg/kg/injection, schedule: Q01DX001 (ip), vehicle: saline 97 % of control | [13] 101 % of control | [4] 92 % of control | [14] 97 % of control | [5] 90 % of control

Cc1cc(C)c(C(=O)OC(c2ccccc2)C(c2ccccc2)N2CCOCC2)c(C)c1 (configuration not stated)
inactive: [13] 96 % of control | [14] 97 % of control | dose: 300.0 mg/kg/injection, schedule: Q01DX001 (ip), vehicle: saline 86 % of control

CCC1(C)CCC2(C)C(CCC3C(C)(CO)CCCC32O)C1 (configuration not stated)
inactive: dose: 12.5 mg/kg/injection, schedule: Q04DX002 (ip), vehicle: saline with Tween-80 96 % of control | dose: 25.0 mg/kg/injection, schedule: Q04DX002 (ip), vehicle: saline with Tween-80 96 % of control | dose: 50.0 mg/kg/injection, schedule: Q04DX002 (ip), vehicle: saline with Tween-80 96 % of control

CCN(CC)CCCC(C)Nc1cc(N)nc2nc(-c3ccc(Cl)cc3)cnc12 (configuration not stated)
inactive: [13] 94 % of control | [14] 101 % of control

COC(=O)C(Br)CCBr (configuration not stated)
inactive: [8] 94 % of control | [7] 94 % of control | [9] 95 % of control | [15] 101 % of control | [10] 100 % of control | [16] 105 % of control

CC(=O)OC(C)(C)C1CCC2(C)COC3(C)CC(=O)OC23C1 (configuration not stated)
inactive: dose: 33.0 mg/kg/injection, schedule: Q04DX003 (ip), vehicle: saline 101 % of control | dose: 66.0 mg/kg/injection, schedule: Q04DX003 (ip), vehicle: saline 101 % of control

CC1NC(=S)NC(=O)C1CCSC(=N)N (configuration not stated)
inactive: [4] 104 % of control | [5] 98 % of control

CN1CCNC(=O)CC1
inactive: dose: 25.0 mg/kg/injection, schedule: Q01DX009 (ip), vehicle: water 106 % of control | dose: 50.0 mg/kg/injection, schedule: Q01DX009 (ip), vehicle: water 102 % of control | dose: 100.0 mg/kg/injection, schedule: Q01DX009 (ip), vehicle: water 98 % of control | dose: 200.0 mg/kg/injection, schedule: Q01DX009 (ip), vehicle: water 114 % of control

CCC1(C)C(=O)N(Br)C(=O)N1Br (configuration not stated)
inactive: [17] 91 % of control | [18] 100 % of control | dose: 100.0 mg/kg/injection, schedule: Q01DX001 (ip), vehicle: Klucel (hydroxypropylcellulose) (HPC) 106 % of control | [19] 95 % of control | [11] 105 % of control | dose: 200.0 mg/kg/injection, schedule: Q01DX001 (ip), vehicle: Klucel (hydroxypropylcellulose) (HPC) 102 % of control | dose: 200.0 mg/kg/injection, schedule: Q01DX009 (ip), vehicle: saline 95 % of control | [12] 97 % of control

CN(C)CCCN1Cc2ccccc2Cc2ccccc21
inactive: [1] 106 % of control | [2] 88 % of control | [3] 97 % of control | dose: 25.0 mg/kg/injection, schedule: Q04DX003 (ip), vehicle: saline 97 % of control | [17] 104 % of control | [18] 108 % of control | [19] 100 % of control | [11] 108 % of control

COc1ccc(CC(=O)NCCN(CCN(CCO)C(=O)Cc2ccc(OC)cc2)C(=O)Cc2ccc(OC)cc2)cc1
inactive: [8] 95 % of control | [7] 100 % of control | [9] 90 % of control | [15] 102 % of control | [10] 91 % of control | [16] 94 % of control

Cc1cc([N+](=O)[O-])cc(C)c1C
inactive: dose: 100.0 mg/kg/injection, schedule: Q04DX003 (ip), vehicle: Klucel (hydroxypropylcellulose) (HPC) 98 % of control | dose: 200.0 mg/kg/injection, schedule: Q04DX003 (ip), vehicle: Klucel (hydroxypropylcellulose) (HPC) 102 % of control | dose: 400.0 mg/kg/injection, schedule: Q04DX003 (ip), vehicle: Klucel (hydroxypropylcellulose) (HPC) 107 % of control
